Laboratory results: US20210330611A1, “THERAPY FOR NEUROLOGICAL DISEASES/DISORDERS” (priority 2020, published 2021)
Where a name gives a salt, the structure may show the parent alone. Read-outs that look alike come from different tables or passages of the source.

Assays:
[1] = test system: fibrin-induced microglia activation; experiment: Image-based assay of fibrin-induced microglia activation (HTS and dose response); assay type: cell-based, rat; settings: for inhibition at 10 µM: Rattus norvegicus, Microglia, read-out: Fibrin % inhibition
[2] = test system: LPS-induced microglia activation; experiment: Image-based assay of LPS-induced microglia activation (HTS and dose response); assay type: cell-based, rat
[3] = test system: primary rat microglia;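 as to Fibrin % cell toxicity: share of dead cells sized under 150 µm2 at 10 µM in fibrin-stimulated microglia HTS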
[4] = test system: fibrin- and LPS-induced microglia activation; experiment: cells; assay type: cell-based, rat
[5] = test system: primary rat microglia; remark: listed apart in the source;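 as to Fibrin % cell toxicity: share of dead cells sized under 150 µm2 at 10 µM in fibrin-stimulated microglia HTS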
[6] = primary microglia HTS, fibrin stimulation, cell size >800 μm2 as marker of activation
[7] = Rattus norvegicus, Microglia, 48 h; read-out: LPS % inhibition
[8] = classification by fibrin and LPS inhibition in HTS
[9] = Rattus norvegicus, Microglia, read-out: LPS % inhibition
[10] = primary HTS, 10 μM, fibrin-stimulated primary microglia
[11] = Rattus norvegicus, Microglia, primary HTS, 10 μM, LPS-stimulated primary microglia; read-out: LPS % inhibition
[12] = primary microglia HTS, fibrin stimulation, compounds at 10 μM
[13] = Rattus norvegicus, Microglia, primary microglia HTS, LPS stimulation, compounds at 10 μM; read-out: LPS % inhibition
[14] = classification by fibrin and LPS inhibition, HTS at 10 μM
[15] = primary microglia HTS, 10 μM, fibrin-stimulated, cell size >800 μm^2 as marker of activation
[16] = Rattus norvegicus, Microglia, primary microglia HTS, 10 μM, LPS-stimulated, cell size >800 μm^2 as marker of activation; read-out: LPS % inhibition
[17] = HTS of 1907 compounds, quadrant by fibrin and LPS inhibition
[18] = Rattus norvegicus, Microglia, 48 h, read-out: LPS % inhibition
[19] = quadrant by fibrin and LPS inhibition in HTS of 1907 compounds
[20] = quadrant by fibrin and LPS inhibition, HTS at 10 μM

Row | SMILES | Fibrin % cell toxicity ([3]; rat) | LPS % cell toxicity ([5]; rat) | inhibition at 10 µM [1] | Quadrant (FIG. 5b) [4] | other results
1 | NC(=O)c1ccccc1O [Salicylamide] | 1% | 1% |  |  | inhibition at 10 µM [1, 6]: -20%; inhibition at 10 µM [2, 7]: 16%; Quadrant (FIG. 5b) [4, 8]: Q4
2 | COc1cc2nc(N3CCN(C(=O)C4CCCO4)CC3)nc(N)c2cc1OC (stereo not drawn) [Terazosin] | 1% | 0% | -1% | Q4 | inhibition at 10 µM [2, 9]: 9%
3 | Oc1c(Cl)cc(Cl)cc1Sc1cc(Cl)cc(Cl)c1O [Bithionol] | 1% | 0% |  |  | inhibition at 10 µM [1, 10]: 11%; inhibition at 10 µM [2, 11]: 14%; Quadrant (FIG. 5b) ([4]; primary HTS, 10 μM): Q4
4 | Cc1ncc([N+](=O)[O-])n1C [Dimetridazole] | 1% | 1% |  |  | inhibition at 10 µM [1, 12]: -16%; inhibition at 10 µM [2, 13]: 15%; Quadrant (FIG. 5b) [4, 14]: Q4
5 | CNC(=O)c1cc(Oc2ccc(NC(=O)Nc3ccc(Cl)c(C(F)(F)F)c3)cc2)ccn1 [Sorafenib] | 1% | 1% |  |  | inhibition at 10 µM [1, 6]: -67%; inhibition at 10 µM [2, 7]: 35%; Quadrant (FIG. 5b) [4, 8]: Q4
6 | CN(C)CCC=C1c2ccccc2C=Cc2ccccc21 [Cyclobenzaprine] | 0% | 1% | -29% | Q4 | inhibition at 10 µM [2, 9]: 35%
7 | O=C([O-])[C@H](O)[C@@H](O)[C@H](O)[C@H](O)CO.[Na+] [Sodium Gluconate] | 1% | 0% |  |  | inhibition at 10 µM [1, 6]: 1%; inhibition at 10 µM [2, 7]: 11%; Quadrant (FIG. 5b) [4, 8]: Q4
8 | NC[C@@H]1CC[C@@H](N)[C@@H](O[C@H]2[C@H](O)[C@@H](O[C@H]3O[C@H](CO)[C@@H](O)[C@H](N)[C@H]3O)[C@H](N)C[C@@H]2N)O1 [Dibekacin] | 1% | 1% | 10% | Q4 | inhibition at 10 µM [2, 9]: 20%
9 | CN1CCN(CC/C=C2/c3ccccc3Sc3ccc(S(=O)(=O)N(C)C)cc32)CC1 [Thiothixene] | 0% | 0% |  |  | inhibition at 10 µM [1, 15]: -4%; inhibition at 10 µM [2, 16]: 37%; Quadrant (FIG. 5b) [4, 17]: Q4
10 | OCC(S)CS (stereo not drawn) [Dimercaptopropanol, Dimercaprol] |  |  |  |  | Fibrin % inhibition [1, 12]: 49%; LPS % inhibition ([2]; primary microglia HTS, LPS stimulation, compounds at 10 μM): 16%; Fibrin % cell toxicity [3]: 1%; Quadrant (FIG. 5b) [4, 14]: Q4; LPS % cell toxicity [5]: 0%
11 | O=c1[nH]c2ccccc2n1CCCN1CCC(n2c(=O)[nH]c3cc(Cl)ccc32)CC1 [Domperidone] | 1% | 0% | 20% | Q4 | inhibition at 10 µM [2, 9]: 15%
12 | O=C(O)c1cc(-c2ccc(F)cc2F)ccc1O [Diflunisal] | 0% | 0% |  |  | inhibition at 10 µM [1, 12]: -62%; inhibition at 10 µM [2, 13]: 15%; Quadrant (FIG. 5b) [4, 14]: Q4
13 | CN1CCN(CC(=O)N2c3ccccc3C(=O)Nc3cccnc32)CC1 [Pirenzepine] | 0% | 0% | 16% | Q4 | inhibition at 10 µM [2, 18]: 19%
14 | Oc1ccc(O)cc1 [Hydroquinone] | 1% | 0% | 14% | Q4 | inhibition at 10 µM [2, 18]: 12%
15 | CNCCCC12CCC(c3ccccc31)c1ccccc12 [Maprotiline hydrochloride, reference compound] | 1% | 1% |  | Q1 | Fibrin % inhibition ([1]; hydrochloride): 31%; inhibition at 10 µM [2, 18]: 67%; Activity [4]: fib/LPS
16 | COc1ccc(CN(CCN(C)C)c2ccccn2)cc1 [Mepyramine] | 0% | 0% |  |  | inhibition at 10 µM ([1]; primary microglia HTS, fibrin stimulation, increased cell size (>800 μm^2) as marker of activation): -11%; inhibition at 10 µM ([2]; Rattus norvegicus, Microglia, 48 h, primary microglia HTS, LPS stimulation; increased cell size (>800 μm^2) as marker of activation; read-out: LPS % inhibition): 13%; Quadrant (FIG. 5b) [4, 19]: Q4
17 | CCN(CC)CCOc1ccc(C(=C(Cl)c2ccccc2)c2ccccc2)cc1 [Clomiphene] | 1% | 0% | 11% | Q4 | inhibition at 10 µM [2, 9]: 7%
18 | O=C1NS(=O)(=O)c2ccccc21 [Saccharin] | 0% | 0% | -8% | Q4 | inhibition at 10 µM [2, 18]: 11%
19 | Nc1ccc(S(=O)(=O)Nc2nccs2)cc1 [Sulfathiazole] | 0% | 0% |  |  | inhibition at 10 µM [1, 15]: -17%; inhibition at 10 µM [2, 16]: 9%; Quadrant (FIG. 5b) [4, 17]: Q4
20 | CCCC(=O)Nc1ccc(OCC(O)CNC(C)C)c(C(C)=O)c1 (stereo not drawn) [Acebutolol] | 1% | 0% |  |  | inhibition at 10 µM [1, 12]: -11%; inhibition at 10 µM [2, 13]: 19%; Quadrant (FIG. 5b) [4, 20]: Q4
21 | COC1=CC(=O)C[C@@H](C)[C@]12Oc1c(Cl)c(OC)cc(OC)c1C2=O [Griseofulvin] | 1% | 0% |  |  | inhibition at 10 µM ([1]; primary microglia HTS, fibrin stimulation, activation = cell size >800 μm2): 9%; inhibition at 10 µM ([2]; Rattus norvegicus, Microglia, 48 h, primary microglia HTS, LPS stimulation, activation = cell size >800 μm2; read-out: LPS % inhibition): 13%; Quadrant (FIG. 5b) [4, 19]: Q4
22 | CC(=O)Nc1nnc(S(N)(=O)=O)s1 [Acetazolamide] | 0% | 1% | -12% | Q4 | inhibition at 10 µM [2, 9]: 4%
23 | CC1=C(C/C=C(\C)CCC[C@H](C)CCC[C@H](C)CCCC(C)C)C(=O)c2ccccc2C1=O [Phylloquinone] |  |  |  |  | Fibrin % inhibition [1, 6]: 4%; LPS % inhibition [2]: 31%; Fibrin % cell toxicity [3]: 0%; Quadrant (FIG. 5b) [4, 8]: Q4; LPS % cell toxicity [5]: 2%
24 | N=c1ccn2c(n1)O[C@H]1[C@H](O)[C@@H](CO)O[C@H]12 [Ancitabine Hydrochloride] | 1% | 1% |  |  | inhibition at 10 µM [1, 12]: -4%; inhibition at 10 µM [2, 13]: 27%; Quadrant (FIG. 5b) [4, 20]: Q4
25 | O=C(OCc1ccccc1)c1ccccc1 [Benzyl Benzoate] | 1% | 1% |  |  | inhibition at 10 µM [1, 10]: 35%; inhibition at 10 µM [2, 11]: 32%; Quadrant (FIG. 5b) ([4]; primary HTS, 10 μM): Q4
26 | CC[C@H]1OC(=O)[C@H](C)[C@@H](O[C@H]2C[C@@](C)(OC)[C@@H](O)[C@H](C)O2)[C@H](C)[C@@H](O[C@@H]2O[C@H](C)C[C@H](N(C)C)[C@H]2O)[C@](C)(O)C[C@@H](C)CN(C)[C@H](C)[C@@H](O)[C@]1(C)O [Azithromycin] | 0% | 0% |  |  | inhibition at 10 µM [1, 12]: -16%; inhibition at 10 µM [2, 13]: 11%; Quadrant (FIG. 5b) [4, 20]: Q4
27 | C=C[C@H]1C[N@@]2CC[C@H]1C[C@H]2[C@H](O)c1ccnc2ccc(OC)cc12 [Quinine Sulfate] | 1% | 1% |  |  | Fibrin % inhibition [1, 6]: −30%; LPS % inhibition [2]: 14%; Quadrant (FIG. 5b) [4, 8]: Q4
28 | Cc1ccc(/C(=C\CN2CCCC2)c2ccccn2)cc1 [Triprolidine] | 1% | 0% |  |  | inhibition at 10 µM [1, 15]: -24%; inhibition at 10 µM [2, 16]: 23%; Quadrant (FIG. 5b) [4, 17]: Q4
